In brackets after ≈: the same amount, converted by molar mass. Numbered stars: 1 amine (or outer) side, 2 acyl side, 3 side chain; on linkers, the order of the positions; unused ones are H or OH. Bridge positions count the residues as written; N and C are the ends. Square brackets hold non-standard residues; d marks the D form. Peptide text beside a SMILES is read from it. * marks the point of attachment. Piperazine(2S-CO,4-Me) = CN1CCN[C@H](C(=O)O)C1; Phe(3-Me) = Cc1cccc(C[C@H](N)C(=O)O)c1; X4 = O=C1CN([*:1])[C@H](C(=O)[*:2])CN1; Pro(4R-Me) = C[C@H]1CN[C@H](C(=O)O)C1; Hyp = O=C(O)[C@@H]1C[C@@H](O)CN1; NH(3-Cl-phenyl) = Clc1cccc(N*)c1; NH(4-Cl-phenyl) = Clc1ccc(N*)cc1; aThr = C[C@H](O)[C@H](N)C(=O)O; Pip = O=C(O)[C@@H]1CCCCN1; CO = O=C([*:1])[*:2]
Columns and labels:
[1] = tested on: MRSA NRS70; assay: Minimal inhibitory concentration, microbroth dilution; type: cell-based; details: Staphylococcus aureus, read-out: Minimal Inhibitory Concentrations (μM) MRSA NRS70, MIC
Experimental: (§1) Minimal inhibitory concentrations (“MICs”) were determined using the microbroth dilution method according to Clinical Laboratory Standards Institute (CLSI; National, C.F. C. L. S., Methods for Dilution Antimicrobial Susceptibility Tests for Bacteria Grow aerobically-Seventh Edition: Approved Standard M7-A7, CLSI, Wayne, Pa., USA, 2008) and were read by visual inspection. Two fold serial dilutions of test compound in 100 μL of the appropriate broth media were first prepared in 96-well round bottom microtiter plates (Nalgene Nunc International, Rochester, N.Y., USA). An equivalent volume (100 μL) of bacterial broth inocula containing approximately 10^5 bacterial cfu/mL was added to each well to give final concentrations of test compound starting at 200 μM. The plates were then incubated aerobically at 37° C. All strains were incubated overnight. After incubations, in all cases the MIC was recorded as the lowest concentration of drug that prevented bacterial growth. The bacterial strains for which MIC was determined as described in Table 4.

[2] = tested on: E. faecails; assay: as above; type: cell-based; details: Enterococcus faecalis, read-out: Minimal Inhibitory Concentrations (μM) E. faecails, MIC
Experimental: as §1

[3] = tested on: S. aureus USA 300; assay: as above; type: cell-based; details: Staphylococcus aureus, USA300, read-out: Minimal Inhibitory Concentrations (μM) S. aureus USA 300, MIC
Experimental: as §1

[4] = tested on: S. aureus ATCC 29213; assay: as above; type: cell-based; details: Staphylococcus aureus, ATCC29213, read-out: Minimal Inhibitory Concentrations (μM) S. aureus ATCC 29213, MIC
Experimental: as §1

[5] = target: T1, S. aureus ClpP (Sa-ClpP) (Staphylococcus aureus, UniProt Q2G036); assay: Casein-BODIPY digestion assay (ClpP activation); type: biochemical
T1 construct: made in house; host or cells: E. coli BL21 (DE3)
Experimental: The compounds were assayed in a casein digestion assay in order to determine their effect on ClpP activation. Briefly, the assay was carried out using S. aureus ClpP (“Sa-ClpP”) overexpressed in E. coli BL21 (DE3) and purified in a two-step process. Purity of the protein was assessed through SDS PAGE analysis. EC50 evaluations were conducted in triplicate in a 20 μl assay format using a method adapted from Maurizi et al. (Methods Enzymol. (1994) 244:314-331). Each well contained 10 μM saClpP, 25 μg/ml BODIPY FL casein (Invitrogen Corporation, San Diego, Calif.), and test compound in concentrations ranging between 0-1000 μM in assay buffer (50 mM Tris pH 8, 200 mM KCl, and 1 mM TCEP). The reaction took place at 37° C. Fluorescence (excitation 485 nm; emission 528 nm) was measured in five minute intervals over a 45 min period using a BioTek HT fluorescence microplate reader (BioTek Instruments, Inc., Winooski, Vt.). Velocity of each reaction was calculated and data was fit to a dose response curve using GraphPad Prism® software (GraphPad Software, Inc., La Jolla, Calif.). EC50 is the effective concentration of compound which causes 50% activation of S. aureus ClpP in the foregoing BODIPY FL casein assay.
Alternatively, the assay was carried out using EnzCheck Protease Assay (Molecular Probes, Catalog # E6638). The assay was performed in black 384 well, flat bottom, low volume plates (Greiner Bio-One, Monroe, N.C., catalog #784076). 10 μL of Tris.HCl buffer, pH 8.0 with 0.01% Triton X-100 was pipetted into each well using a Well-Mate (Thermo Scientific, Waltham, Mass.). 0.4 μL test compounds or controls (2% DMSO v/v) were added to each well using a Biomek FX liquid handling robot (Beckman Coulter, Indianapolis, Ind.). After addition of test compounds and controls, 10 μL of master mix containing 2 μM Sa-ClpP and 2 μM substrate (Bodipy-FL labeled casein) in Tris.HCl buffer, pH 8.0 with 0.01% (v/v) Triton X-100, was pipetted into each well. All assays were performed in triplicate, under linear velocity conditions. Increase in fluorescent signal following activation of Sa-ClpP by test compounds and controls was measured over time period of 30 mins using filters with excitation at 485±15 nm and emission at 520±25 nm on a PHERAstar FS Multilabel reader (BMG, Cary, N.C.). Instrument gains and enzyme linear velocity conditions were determined and validated using ADEP4, a known Sa-ClpP activator. Data analysis was done by measuring rate of casein degradation over time (slopes). Computed degradation rates (slopes) were normalized to positive (ADEP4) or negative (DMSO) controls. Using nonlinear regression curve fitting EC50 values and % activation were determined using the equation “log [agonist] vs. Response-variable slope (four parameters)-symmetrical” in the program Prism 6 (GraphPad Software, La Jolla, Calif. USA, www.graphpad.com).

[6] = tested on: S. aureus ΔClpP; assay: Minimal inhibitory concentration, microbroth dilution; type: cell-based, Staphylococcus aureus; details: MIC; ClpP inactivated
Experimental: as §1

T1 sequence (Q2G036 whole entry): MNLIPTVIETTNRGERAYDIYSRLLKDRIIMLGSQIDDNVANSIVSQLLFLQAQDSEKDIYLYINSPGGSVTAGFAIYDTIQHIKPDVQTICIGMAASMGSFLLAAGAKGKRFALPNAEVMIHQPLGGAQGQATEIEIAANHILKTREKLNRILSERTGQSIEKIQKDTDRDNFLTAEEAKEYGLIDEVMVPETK

Cc1cccc(C[C@H](NC(=O)Nc2cccc(Cl)c2)C(=O)N[C@H]2COC(=O)[C@@H]3C[C@H](C)CN3C(=O)[C@H](C)NC(=O)[C@@H]3CCCCN3C(=O)[C@@H]3CCCN3C2=O)c1 [Compound 54, (S)-2-(3-(3-CHLOROPHENYL)UREIDO)-N-((2S,6S,8AS,14AS,20S,23AS)-2,6-DIMETHYL-5,8,14,19,23-PENTAOXOOCTADECAHYDRO-1H,5H,14H,19H-PYRIDO[2,1-I]DIPYRROLO[2,1-C:2′,1′-L][1]OXA[4,7,10,13]TETRAAZACYCLOHEXADECIN-20-YL)-3-(M-TOLYL)PROPANAMIDE]
MIC [1]: 5 µM (≈ 3.96 µg/mL)
MIC [2]: 10 µM (≈ 7.92 µg/mL)
MIC [3]: > 20 µM
MIC [4]: > 20 µM
EC50 [5]: 1540 ± 1400 nM
Minimal Inhibitory Concentrations (μM) S. aureus ΔClpP [6]: >20 µM

Cc1cccc(C[C@H](NC(=O)Nc2cccc(Cl)c2)C(=O)N[C@@H]2C(=O)N3C[C@H](O)C[C@H]3C(=O)N3CCN(C)C[C@H]3C(=O)N[C@@H](C)C(=O)N3C[C@H](C)C[C@H]3C(=O)O[C@H]2C)c1 [Compound 69, (S)-2-(3-(3-CHLOROPHENYL)UREIDO)-N-((6AS,8R,12S,13S,15AS,17R,21S,23AS)-8-HYDROXY-2,13,17,21-TETRAMETHYL-6,11,15,20,23-PENTAOXOOCTADECAHYDRO-2H,6H,11H,15H-PYRAZINO[2,1-I]DIPYRROLO[2,1-C:2′,1′-L][1]OXA[4,7,10,13]TETRAAZACYCLOHEXADECIN-12-YL)-3-(M-TOLYL)PROPANAMIDE] ({NH(3-Cl-phenyl)-CO}-[Phe(3-Me)][aThr][Hyp][Piperazine(2S-CO,4-Me)]A[Pro(4R-Me)]; ester 2-C)
MIC [1]: 5 µM (≈ 4.19 µg/mL)
MIC [2]: 5 µM (≈ 4.19 µg/mL)
MIC [3]: 2.5 µM (≈ 2.09 µg/mL)
MIC [4]: 5 µM (≈ 4.19 µg/mL)
EC50 [5]: 390 ± 800 nM
Minimal Inhibitory Concentrations (μM) S. aureus ΔClpP [6]: >20 µM

Cc1cccc(C[C@H](NC(=O)Nc2cccc(Cl)c2)C(=O)N[C@@H]2C(=O)N3CCC[C@H]3C(=O)N3CC(=O)NC[C@H]3C(=O)N[C@@H](C)C(=O)N3C[C@H](C)C[C@H]3C(=O)O[C@H]2C)c1 [Compound 76, (S)-2-(3-(3-CHLOROPHENYL)UREIDO)-3-(M-TOLYL)-N-((6AS,12S,13S,15AS,17R,21S,23AS)-13,17,21-TRIMETHYL-3,6,11,15,20,23-HEXAOXOOCTADECAHYDRO-2H,6H,11H,15H-PYRAZINO[2,1-I]DIPYRROLO[2,1-C:2′,1′-L][1]OXA[4,7,10,13]TETRAAZACYCLOHEXADECIN-12-YL)PROPANAMIDE] ({NH(3-Cl-phenyl)-CO}-[Phe(3-Me)][aThr]P[X4]A[Pro(4R-Me)]; ester 2-C)
MIC [1]: > 20 µM
MIC [2]: > 20 µM
MIC [3]: > 20 µM
MIC [4]: > 20 µM
EC50 [5]: 5020 nM
Minimal Inhibitory Concentrations (μM) S. aureus ΔClpP [6]: >20 µM

Cc1cccc(C[C@H](NC(=O)Nc2ccc(Cl)cc2)C(=O)N[C@@H]2C(=O)N3C[C@H](O)C[C@H]3C(=O)N3CCCC[C@H]3C(=O)N[C@@H](C)C(=O)N3CCC[C@H]3C(=O)O[C@H]2C)c1 [Compound 59, (S)-2-(3-(4-CHLOROPHENYL)UREIDO)-N-((6S,8AS,14AS,16R,20S,21S,23AS)-16-HYDROXY-6,21-DIMETHYL-5,8,14,19,23-PENTAOXOOCTADECAHYDRO-1H,5H,14H,19H-PYRIDO[2,1-I]DIPYRROLO[2,1-C:2′,1′-L][1]OXA[4,7,10,13]TETRAAZACYCLOHEXADECIN-20-YL)-3-(M-TOLYL)PROPANAMIDE] ({NH(4-Cl-phenyl)-CO}-[Phe(3-Me)][aThr][Hyp][Pip]AP; ester 2-C)
MIC [1]: 1.25 µM (≈ 1.01 µg/mL)
MIC [2]: 5 µM (≈ 4.04 µg/mL)
MIC [3]: 1.25 µM (≈ 1.01 µg/mL)
MIC [4]: 2.5 µM (≈ 2.02 µg/mL)
EC50 [5]: 810 ± 500 nM

Reference: US10570179B2, “Substituted urea depsipeptide analogs as activators of the CLPP endopeptidase” (priority 2016, dated 2020)
